Reference: patent US11000033B2, “Ketone or oxime compound, and herbicide” (NISSAN CHEMICAL CORPORATION, priority 2014, dated 2021)

Experiments:
Format in all cases: in vivo
[1] = test system: directly sowed rice plant; test: Test Example 3: effect on crop by foliage application, Wagner pot (symbol b); details: application herbicide amount 320 g/ha
Procedure, shortened: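 Alluvial soil in a 1/10000-are Wagner pot was flooded to a water depth of 0.1–0.5 cm. Echinochloa crus-galli var. crus-galli, Leptochloa chinensis, Cyperus difformis and rice were sown into it and grown in a greenhouse at 25–30 °C.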

Digitaria ciliaris = test: Test Example 5: herbicidal effect by foliage application, plastic box (symbol F); details: 320 g/ha, 3 weeks after application
Procedure, shortened: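 Seeds were sown in sterilized diluvial soil, covered with about 1.5 cm of soil and grown 14 days in a greenhouse at 25° C. to 30° C. An emulsifiable formulation diluted in water to a set rate was sprayed over foliage, and injury was scored 3 weeks later.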

corn = test: Test Example 5: effect on crop by foliage application, plastic box (symbol c); details: 320 g/ha, 3 weeks after application
Procedure, shortened: (§1)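 In a plastic box 7 cm deep filled with sterilized diluvial soil, seeds of crops and weeds such as Digitaria ciliaris, Avena fatua and Amaranthus retroflexus are sown in spots and covered with about 1.5 cm of soil before greenhouse growth at 25–30° C.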

Setaria viridis = test: Test Example 4: herbicidal effect by soil treatment (symbol G); details: 320 g/ha
Procedure, shortened: (§2)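 Seeds were sown in sterilized diluvial soil, covered with about 1.5 cm of soil, and the soil surface was sprayed with a water-diluted emulsion of the compound at a predetermined rate. Plants grew in a greenhouse at 25° C. to 30° C.; effects were scored visually 3 weeks after application.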

Monochoria vaginalis = test: Test Example 2: herbicidal activity, application during weed generation in submerged conditions (symbol C); details: Table 23; application herbicide amount 320 g/ha; grade 0-5 by criteria of Test Example 1
Procedure, shortened: (§3)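 Submerged alluvial soil (4 cm) sown with mixed seed; greenhouse 25–30° C. 1–2 leaf: diluted emulsion onto water surface, preset dose. Visual score, 3 wk.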

transplanted rice plant = test: Test Example 1: effect on crop, application before weed generation in submerged conditions (symbol a); details: application herbicide amount 320 g/ha
Procedure, shortened: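 Alluvial soil pots flooded to 4 cm water, sown with Echinochloa oryzacola, Scirpus juncoides and Monochoria vaginalis, then transplanted with 2.5 leaf stage rice seedlings; pre-emergence application. Greenhouse 25° C. to 30° C.; scored 0–5 by herbicidal ratio 3 weeks after application.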

Avena fatua = test: Test Example 4: herbicidal effect by soil treatment (symbol I); details: 320 g/ha
Procedure, shortened: as §2

[2] = test system: Echinochloa oryzacola Vasing.; test: Test Example 1: herbicidal activity, application before weed generation in submerged conditions (symbol A); details: application herbicide amount 320 g/ha
Procedure, shortened: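 Compound emulsion was diluted to a set herbicide amount and applied to the water surface on the sowing day, into submerged (4 cm) alluvial-soil pots sown with mixed weed seeds and transplanted 2.5-leaf rice. Pots were held in a 25–30 °C greenhouse, and weeds were scored 0–5 by herbicidal ratio after 3 weeks.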

[3] = test system: Echinochloa oryzacola Vasing.; test: Test Example 2: herbicidal activity, application during weed generation in submerged conditions (symbol A); details: Table 23; application herbicide amount 320 g/ha; grade 0-5 by criteria of Test Example 1
Procedure, shortened: as §3

wheat = test: Test Example 5: effect on crop by foliage application, plastic box (symbol e); details: 320 g/ha, 3 weeks after application
Procedure, shortened: as §1

rapeseed = test: Test Example 4: effect on crop by soil treatment (symbol g); details: 320 g/ha
Procedure, shortened: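 Grown at 25° C. to 30° C. in a greenhouse, the crops came from seed sown spot-wise in sterilized diluvial soil under roughly 1.5 cm of covering soil.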

Structure (SMILES) | effect on crop b (directly sowed rice plant), grade 0-5 [1] | F: Digitaria ciliaris, herbicidal effect (criteria 0-5) (Digitaria ciliaris) | c: corn, effect on crop (criteria 0-5) (corn) | G: Setaria viridis, herbicidal effect grade (Setaria viridis) | Herbicidal effect grade, C: Monochoria vaginalis (Monochoria vaginalis) | Effect grade on crop, a: transplanted rice plant (transplanted rice plant) | I: Avena fatua, herbicidal effect grade (Avena fatua) | Herbicidal effect grade, A: Echinochloa oryzacola Vasing. [2] | Herbicidal effect grade, A: Echinochloa oryzacola Vasing. [3] | e: wheat, effect on crop (criteria 0-5) (wheat) | g: rapeseed, effect grade on crop (rapeseed)
CON=C(C)CC1CC(OS(=O)(=O)CC[Si](C)(C)C)=C(c2c(C)cc(C)cc2C)C1=O (centres unmarked) [1-144] | 5 (Herbicidal ratio of 90% or more (almost completely withered)) | 5 (Herbicidal ratio of 90% or more (almost completely withered)) | 5 (Herbicidal ratio of 90% or more (almost completely withered)) | 5 (Herbicidal ratio of 90% or more (almost completely withered)) | 2 (Herbicidal ratio of 20% or higher and lower than 40%) | 5 (Herbicidal ratio of 90% or more (almost completely withered)) | 2 (Herbicidal ratio of 20% or higher and lower than 40%) | 5 (Herbicidal ratio of 90% or more (almost completely withered)) | 5 (Herbicidal ratio of 90% or more (almost completely withered)) | 4 (Herbicidal ratio of 70% or higher and lower than 90%) | 2 (Herbicidal ratio of 20% or higher and lower than 40%)
CON=C(C)CC1CC(OC(=O)OCc2ccccc2)=C(c2c(C)cc(C)cc2C)C1=O (centres unmarked) [1-145] | 5 (Herbicidal ratio of 90% or more (almost completely withered)) | 5 (Herbicidal ratio of 90% or more (almost completely withered)) | 5 (Herbicidal ratio of 90% or more (almost completely withered)) | 5 (Herbicidal ratio of 90% or more (almost completely withered)) | 3 (Herbicidal ratio of 40% or higher and lower than 70%) | 5 (Herbicidal ratio of 90% or more (almost completely withered)) | 4 (Herbicidal ratio of 70% or higher and lower than 90%) | 5 (Herbicidal ratio of 90% or more (almost completely withered)) | 5 (Herbicidal ratio of 90% or more (almost completely withered)) | 5 (Herbicidal ratio of 90% or more (almost completely withered)) | 4 (Herbicidal ratio of 70% or higher and lower than 90%)
C=CCOC(=O)OC1=C(c2c(C)cc(C)cc2C)C(=O)C(CC(C)=NOC)C1 (centres unmarked) [1-146] | 5 (Herbicidal ratio of 90% or more (almost completely withered)) | 5 (Herbicidal ratio of 90% or more (almost completely withered)) | 5 (Herbicidal ratio of 90% or more (almost completely withered)) | 5 (Herbicidal ratio of 90% or more (almost completely withered)) | 4 (Herbicidal ratio of 70% or higher and lower than 90%) | 5 (Herbicidal ratio of 90% or more (almost completely withered)) | 4 (Herbicidal ratio of 70% or higher and lower than 90%) | 5 (Herbicidal ratio of 90% or more (almost completely withered)) | 5 (Herbicidal ratio of 90% or more (almost completely withered)) | 5 (Herbicidal ratio of 90% or more (almost completely withered)) | 5 (Herbicidal ratio of 90% or more (almost completely withered))
COCCOC(=O)OC1=C(c2c(C)cc(C)cc2C)C(=O)C(CC(C)=NOC)C1 (centres unmarked) [1-147] | 5 (Herbicidal ratio of 90% or more (almost completely withered)) | 5 (Herbicidal ratio of 90% or more (almost completely withered)) | 5 (Herbicidal ratio of 90% or more (almost completely withered)) | 5 (Herbicidal ratio of 90% or more (almost completely withered)) | 3 (Herbicidal ratio of 40% or higher and lower than 70%) | 5 (Herbicidal ratio of 90% or more (almost completely withered)) | 5 (Herbicidal ratio of 90% or more (almost completely withered)) | 5 (Herbicidal ratio of 90% or more (almost completely withered)) | 5 (Herbicidal ratio of 90% or more (almost completely withered)) | 5 (Herbicidal ratio of 90% or more (almost completely withered)) | 4 (Herbicidal ratio of 70% or higher and lower than 90%)
CON=C(C)CC1CC(OC(=O)C(C)(C)c2ccc(Cl)cc2)=C(c2c(C)cc(C)cc2C)C1=O (centres unmarked) [1-148] | 5 (Herbicidal ratio of 90% or more (almost completely withered)) | 5 (Herbicidal ratio of 90% or more (almost completely withered)) | 4 (Herbicidal ratio of 70% or higher and lower than 90%) | 5 (Herbicidal ratio of 90% or more (almost completely withered)) | 4 (Herbicidal ratio of 70% or higher and lower than 90%) | 5 (Herbicidal ratio of 90% or more (almost completely withered)) | 0 (Herbicidal ratio of 5% or lower (almost no effect)) | 5 (Herbicidal ratio of 90% or more (almost completely withered)) | 5 (Herbicidal ratio of 90% or more (almost completely withered)) | 5 (Herbicidal ratio of 90% or more (almost completely withered)) | 4 (Herbicidal ratio of 70% or higher and lower than 90%)
CON=C(C)CC1CC(OC(=O)c2ccc(C(F)(F)F)cc2)=C(c2c(C)cc(C)cc2C)C1=O (centres unmarked) [1-149] | 5 (Herbicidal ratio of 90% or more (almost completely withered)) | 5 (Herbicidal ratio of 90% or more (almost completely withered)) | 4 (Herbicidal ratio of 70% or higher and lower than 90%) | 5 (Herbicidal ratio of 90% or more (almost completely withered)) | 3 (Herbicidal ratio of 40% or higher and lower than 70%) | 5 (Herbicidal ratio of 90% or more (almost completely withered)) | 0 (Herbicidal ratio of 5% or lower (almost no effect)) | 5 (Herbicidal ratio of 90% or more (almost completely withered)) | 5 (Herbicidal ratio of 90% or more (almost completely withered)) | 5 (Herbicidal ratio of 90% or more (almost completely withered)) | 4 (Herbicidal ratio of 70% or higher and lower than 90%)
CON=C(C)CC1CC(OC(=O)N2CCCC2)=C(c2c(C)cc(C)cc2C)C1=O (centres unmarked) [1-150] | 5 (Herbicidal ratio of 90% or more (almost completely withered)) | 5 (Herbicidal ratio of 90% or more (almost completely withered)) | 4 (Herbicidal ratio of 70% or higher and lower than 90%) | 0 (Herbicidal ratio of 5% or lower (almost no effect)) | 1 (Herbicidal ratio of 5% or higher and lower than 20%) | 5 (Herbicidal ratio of 90% or more (almost completely withered)) | 2 (Herbicidal ratio of 20% or higher and lower than 40%) | 5 (Herbicidal ratio of 90% or more (almost completely withered)) | 5 (Herbicidal ratio of 90% or more (almost completely withered)) | 4 (Herbicidal ratio of 70% or higher and lower than 90%) | 0 (Herbicidal ratio of 5% or lower (almost no effect))
